# Test results: ChEMBL document CHEMBL3734663, “Solid-phase synthesis and in vitro biological activity of a Thr4→Ser4 analog of daptomycin” (2015)
# What was measured:
# Type in all cases: functional
# Bacillus subtilis [1] = test: Antibacterial activity against Bacillus subtilis 1046 in presence of 100 mM Ca2+
# Bacillus subtilis [2] = test: Antibacterial activity against Bacillus subtilis 1046 in presence of 1.8 mM Ca2+
# Bacillus subtilis [3] = test: Antibacterial activity against Bacillus subtilis 1046 in presence of 5 mM Ca2+
Structure (SMILES),MIC (Bacillus subtilis [1]),MIC (Bacillus subtilis [3]),MIC (Bacillus subtilis [2])
CCCCCCCCCC(=O)N[C@@H](Cc1c[nH]c2ccccc12)C(=O)N[C@@H](CC(N)=O)C(=O)N[C@@H](CC(=O)O)C(=O)N[C@H]1COC(=O)[C@H](Cc2ccc(O)cc2)NC(=O)[C@H](CCC(=O)O)NC(=O)[C@@H](CO)NC(=O)CNC(=O)[C@H](CC(=O)O)NC(=O)[C@@H](C)NC(=O)[C@H](CC(=O)O)NC(=O)[C@H](CCCN)NC(=O)CNC1=O,1.3 µg/mL,35 µg/mL,–
CCCCCCCCCC(=O)N[C@@H](Cc1c[nH]c2ccccc12)C(=O)N[C@H](CC(N)=O)C(=O)N[C@@H](CC(=O)O)C(=O)N[C@@H]1C(=O)NCC(=O)N[C@@H](CCCN)C(=O)N[C@@H](CC(=O)O)C(=O)N[C@H](C)C(=O)N[C@@H](CC(=O)O)C(=O)NCC(=O)N[C@H](CO)C(=O)N[C@@H]([C@H](C)CC(=O)O)C(=O)N[C@@H](CC(=O)c2ccccc2N)C(=O)O[C@@H]1C,0.5 µg/mL,0.75 µg/mL,1 µg/mL
"CCCCCCCCCC(=O)N[C@@H](Cc1c[nH]c2ccccc12)C(=O)NC(CC(N)=O)C(=O)N[C@@H](CC(=O)O)C(=O)N[C@@H]1C(=O)NCC(=O)N[C@@H](CCCN)C(=O)N[C@@H](CC(=O)O)C(=O)N[C@H](C)C(=O)N[C@@H](CC(=O)O)C(=O)NCC(=O)N[C@H](CO)C(=O)N[C@@H](C(C)CC(=O)O)C(=O)N[C@@H](CC(=O)c2ccccc2N)C(=O)O[C@@H]1C (single isomer, unassigned) [DAPTOMYCIN]",5 µg/mL,5 µg/mL,40 µg/mL

# Continued, in another order:
MIC (Bacillus subtilis [1]),MIC (Bacillus subtilis [3]),Structure (SMILES),MIC (Bacillus subtilis [2])
1.5 µg/mL,1.5 µg/mL,CCCCCCCCCC(=O)N[C@@H](Cc1c[nH]c2ccccc12)C(=O)N[C@@H](CC(N)=O)C(=O)N[C@@H](CC(=O)O)C(=O)N[C@H]1COC(=O)[C@H](Cc2c[nH]c3ccccc23)NC(=O)[C@H](CCC(=O)O)NC(=O)[C@@H](CO)NC(=O)CNC(=O)[C@H](CC(=O)O)NC(=O)[C@@H](C)NC(=O)[C@H](CC(=O)O)NC(=O)[C@H](CCCN)NC(=O)CNC1=O,5 µg/mL
> 100 µg/mL,> 100 µg/mL,CCCCCCCCCC(=O)N[C@@H](Cc1c[nH]c2ccccc12)C(=O)N[C@@H](CC(N)=O)C(=O)N[C@@H](CC(=O)O)C(=O)N[C@H]1COC(=O)[C@H](Cc2c[nH]c3ccccc23)NC(=O)[C@H](CCC(=O)O)NC(=O)[C@@H](CO)NC(=O)CNC(=O)[C@H](CC(=O)O)NC(=O)[C@@H](C)NC(=O)[C@H](C)NC(=O)[C@H](CCCN)NC(=O)CNC1=O,> 100 µg/mL
